This is an account of results in PMC7933930, “Development of a small molecule that corrects misfolding and increases secretion of Z α1‐antitrypsin” (EMBO Molecular Medicine, 2021).

Structures are written as SMILES. A value given as a limit tells only on which side of the number the result lay.

A short description of series [1]: Oral pharmacokinetics in rat. The class given is in vivo. The settings on record: Han Wistar, whole blood, ≤ 3 mg/kg, read-out: F (oral bioavailability). The method, then:
[…] Blood samples were taken into EDTA, diluted and mixed with acetonitrile containing internal standard (alprazolam) and centrifuged to precipitate proteins. Aliquots of the resultant supernatant were analysed by LC‐MS/MS, and concentrations of GSK716 in blood were determined. Non‐compartmental pharmacokinetic analysis (NCA) was carried out using Phoenix WinNonLin 6.3 (Certara L.P.). Free drug was measured in Z α1‐antitrypsin transgenic mice by dialysing tissue samples in rapid equilibrium dialysis cassettes.

The target in a further series is PDE4B (Homo sapiens, UniProt Q07343). Nature of the series: Off‐target panel: PDE4B. It is filed as biochemical. The settings on record: Inhibition, read-out: Mean (PXC50). The method, then:
(§1) GSK716 selectivity and PK properties were profiled in order to investigate the suitability of GSK716 for progression into in vivo studies and the potential for taking it forward as a clinical candidate for testing in humans. Since GSK716 results in loss of inhibitory activity of α1‐antitrypsin, the effect of the compound was assessed on other closely related serpins. […] Furthermore, there were no off‐target effects in a panel of assays considered predictive of known safety liabilities that precluded further development of GSK716 (Table EV1).

In another series the target is Dopamine D2 (DRD2S) (Homo sapiens, UniProt P14416). Briefly: Off‐target panel: Dopamine D2 (DRD2S) (DRX). The class given is cell-based. The method, then:
as §1

A further series concerns mouse hepatocytes. Briefly: Hepatocyte clearance, mouse. It is filed as in vitro ADME. The method, then:
Williams E media supplemented with 2 mM L‐glutamine and 25 mM HEPES and test compound (final compound concentration 0.5 µM; final DMSO concentration 0.25% v/v) were preincubated at 37°C prior to the addition of a suspension of cryopreserved pooled hepatocytes (final cell density 0.5 × 10^6 viable cells/ml) to initiate the reaction. The final incubation volume was 500 µl. The reactions were stopped by transferring 50 µl of incubate to 100 µl acetonitrile containing internal standard at the appropriate time points (0, 5, 10, 20, 40 and 60 min, 0, 10, 20, 40, 60 and 120 min or 0, 20, 40, 60, 120 and 240 min). The control (lysed cells or vehicle) was incubated for 60, 120 or 240 min only. The termination plates were centrifuged at 2,500 rpm at 4°C for 30 min to precipitate the protein. Following protein precipitation, the sample supernatants were analysed by LC‐MS/MS. From a plot of loge peak area ratio (compound peak area/internal standard peak area) against time, the gradient of the line was determined and half‐life (t½) and intrinsic clearance (CLint) were calculated.

The subject of series [2] is α1‐antitrypsin variants M, S, Baghdad, Z. Briefly: Association with α1‐antitrypsin variants M, S, Baghdad and Z (intrinsic tryptophan fluorescence). The class given is binding, human. The settings on record: 10 μM GSK716. An excerpt:
Polymerisation of α1‐antitrypsin involves transition through a transient intermediate state known as M*, that is readily populated by the Z variant (Dafforn et al, 1999; Knaupp et al, 2010). The M* conformational ensemble appears to be a distinct species between the native state conformation and that of the final polymer. One of the hallmarks of M* is its recognition by environment‐sensitive fluorescent reporter dyes. Thermal shift assays that make use of the dye SYPRO Orange report the stability of the protein native state against heat‐induced unfolding. […] Native state stability can also be probed by equilibrium unfolding using chemical denaturants, where a peak in bis‐ANS fluorescence corresponds with a maximally populated unfolding intermediate (James & Bottomley, 1998). […] The association of GSK716 induced a marked quenching and blue‐shift of the α1‐antitrypsin intrinsic tryptophan fluorescence spectrum (Fig 4D, inset). The rate of change in fluorescence during association of 10µM GSK716 was proportional to the propensity of α1‐antitrypsin mutants to form polymers in vivo: inert (M), mild (S), moderate (Baghdad) and severe (Z) α1‐antitrypsin (Fig 4D, top and bottom). […]

The target in a further series is human serum albumin (Homo sapiens, UniProt P02768). It is filed as in vitro ADME.
Another series deals with Glucocorticoid Receptor (Homo sapiens, UniProt P04150). Briefly: Off‐target panel: Glucocorticoid Receptor. The settings on record: Agonist, read-out: Mean (PXC50). It is filed as cell-based. How it is done: as §1
In another series the target is Adenosine A2a (Homo sapiens, UniProt P29274). Briefly: Off‐target panel: Adenosine A2a. It is filed as cell-based. The settings on record: Agonist, read-out: Mean (PXC50). How it is done: as §1
A further series is described as follows: ChromLogD. The class given is physicochemical. The settings on record: pH 7.4; pH7.4. How it is done: ChromLogD was measured as previously described (Valkó et al, 1997).

Sequence of Dopamine D2 (DRD2S) (P14416 1-414 isoform P14416-2): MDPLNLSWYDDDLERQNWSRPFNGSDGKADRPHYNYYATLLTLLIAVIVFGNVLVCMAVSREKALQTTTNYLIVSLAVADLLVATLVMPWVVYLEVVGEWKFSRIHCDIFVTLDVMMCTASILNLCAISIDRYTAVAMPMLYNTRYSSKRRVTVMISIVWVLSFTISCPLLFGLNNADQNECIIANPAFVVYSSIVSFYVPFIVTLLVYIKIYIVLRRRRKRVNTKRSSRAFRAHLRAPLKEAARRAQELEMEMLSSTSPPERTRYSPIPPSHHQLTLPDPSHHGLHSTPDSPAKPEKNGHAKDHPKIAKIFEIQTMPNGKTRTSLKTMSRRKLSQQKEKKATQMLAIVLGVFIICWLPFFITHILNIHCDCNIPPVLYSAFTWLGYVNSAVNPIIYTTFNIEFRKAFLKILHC
Sequence of PDE4B (Q07343 whole entry, species assumed): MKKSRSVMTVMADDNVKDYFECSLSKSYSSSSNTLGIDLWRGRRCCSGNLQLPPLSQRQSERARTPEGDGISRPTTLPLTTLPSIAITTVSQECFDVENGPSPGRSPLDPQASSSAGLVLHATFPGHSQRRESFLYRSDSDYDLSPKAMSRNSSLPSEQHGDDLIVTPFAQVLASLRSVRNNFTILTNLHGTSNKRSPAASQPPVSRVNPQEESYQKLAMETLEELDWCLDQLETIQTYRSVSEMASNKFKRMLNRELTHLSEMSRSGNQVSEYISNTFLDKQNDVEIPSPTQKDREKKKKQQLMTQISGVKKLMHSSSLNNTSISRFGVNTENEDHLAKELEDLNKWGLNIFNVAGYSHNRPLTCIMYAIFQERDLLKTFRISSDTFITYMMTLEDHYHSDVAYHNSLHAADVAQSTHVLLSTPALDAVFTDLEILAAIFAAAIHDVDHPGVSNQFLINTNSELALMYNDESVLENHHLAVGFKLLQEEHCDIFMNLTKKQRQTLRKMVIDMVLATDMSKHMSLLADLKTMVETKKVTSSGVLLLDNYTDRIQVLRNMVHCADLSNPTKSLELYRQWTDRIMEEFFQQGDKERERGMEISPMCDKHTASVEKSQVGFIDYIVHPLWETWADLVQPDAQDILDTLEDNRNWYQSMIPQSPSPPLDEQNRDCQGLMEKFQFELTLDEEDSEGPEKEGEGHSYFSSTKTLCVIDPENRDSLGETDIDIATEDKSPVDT
Sequence of human serum albumin (P02768 25-609): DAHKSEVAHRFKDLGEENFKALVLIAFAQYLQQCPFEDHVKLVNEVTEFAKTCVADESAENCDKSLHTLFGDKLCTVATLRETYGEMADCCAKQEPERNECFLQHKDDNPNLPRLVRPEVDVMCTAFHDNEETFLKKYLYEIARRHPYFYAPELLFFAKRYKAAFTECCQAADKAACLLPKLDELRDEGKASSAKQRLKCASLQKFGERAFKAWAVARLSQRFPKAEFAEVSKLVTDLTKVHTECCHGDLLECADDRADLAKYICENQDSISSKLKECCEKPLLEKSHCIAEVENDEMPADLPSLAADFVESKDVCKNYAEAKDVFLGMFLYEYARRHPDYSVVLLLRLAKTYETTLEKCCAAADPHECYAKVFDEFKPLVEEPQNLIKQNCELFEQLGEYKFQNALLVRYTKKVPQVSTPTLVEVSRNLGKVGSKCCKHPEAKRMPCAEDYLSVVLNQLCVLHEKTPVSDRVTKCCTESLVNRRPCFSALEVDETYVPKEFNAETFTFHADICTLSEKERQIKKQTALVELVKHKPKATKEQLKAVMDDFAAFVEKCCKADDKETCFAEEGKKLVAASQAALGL
Sequence of Glucocorticoid Receptor (P04150 whole entry, species assumed): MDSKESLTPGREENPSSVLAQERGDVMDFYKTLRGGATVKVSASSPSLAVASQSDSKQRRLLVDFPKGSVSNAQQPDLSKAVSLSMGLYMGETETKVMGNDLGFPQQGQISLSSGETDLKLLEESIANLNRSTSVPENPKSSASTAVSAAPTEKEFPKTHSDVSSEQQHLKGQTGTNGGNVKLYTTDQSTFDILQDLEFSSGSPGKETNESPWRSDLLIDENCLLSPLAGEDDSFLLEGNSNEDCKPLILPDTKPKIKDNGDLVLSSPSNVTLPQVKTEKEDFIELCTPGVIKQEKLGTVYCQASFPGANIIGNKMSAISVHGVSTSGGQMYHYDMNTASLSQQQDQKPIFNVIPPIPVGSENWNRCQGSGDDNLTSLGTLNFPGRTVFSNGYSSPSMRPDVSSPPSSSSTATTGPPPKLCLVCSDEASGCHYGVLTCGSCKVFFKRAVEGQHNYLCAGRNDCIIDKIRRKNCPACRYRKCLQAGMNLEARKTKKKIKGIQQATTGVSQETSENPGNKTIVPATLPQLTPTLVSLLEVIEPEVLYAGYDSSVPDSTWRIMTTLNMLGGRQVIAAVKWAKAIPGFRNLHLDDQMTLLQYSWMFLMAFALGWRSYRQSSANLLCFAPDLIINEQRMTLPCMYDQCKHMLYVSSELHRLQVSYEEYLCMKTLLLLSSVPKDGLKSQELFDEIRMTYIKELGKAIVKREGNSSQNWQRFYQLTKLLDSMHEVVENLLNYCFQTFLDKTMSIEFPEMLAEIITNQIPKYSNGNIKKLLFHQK
Sequence of Adenosine A2a (P29274 whole entry): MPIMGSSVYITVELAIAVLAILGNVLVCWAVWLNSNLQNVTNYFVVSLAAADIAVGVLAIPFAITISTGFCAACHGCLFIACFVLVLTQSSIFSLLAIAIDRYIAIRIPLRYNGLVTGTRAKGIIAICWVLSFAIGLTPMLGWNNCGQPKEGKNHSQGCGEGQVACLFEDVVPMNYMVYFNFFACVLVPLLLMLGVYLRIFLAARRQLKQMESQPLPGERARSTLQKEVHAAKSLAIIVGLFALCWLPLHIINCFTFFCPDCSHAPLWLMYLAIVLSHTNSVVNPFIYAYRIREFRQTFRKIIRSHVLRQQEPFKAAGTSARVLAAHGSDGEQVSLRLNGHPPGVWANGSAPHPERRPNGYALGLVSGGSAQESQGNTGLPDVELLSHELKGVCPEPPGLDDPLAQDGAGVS

In the case of `CCC[C@@H](NC(=O)c1cccc2c1CC(=O)N2)[C@@H](O)c1cccc(F)c1C` [GSK716], in series [1], the bioavailability (usually the share of a dose that reaches the circulation, judged against a reference dose that is usually intravenous) turned out to be 48%. The IC50 at PDE4B and against Dopamine D2 (DRD2S) was over 100 µM each time. In addition, the EC50 at Dopamine D2 (DRD2S), at Glucocorticoid Receptor and at Adenosine A2a was over 100 µM in each case. The “metabolic clearance in mouse hepatocytes” value in the series on mouse hepatocytes was 4.56 ml/min/g tissue. Also, in series [2], the “binding / rate of association across α1‐antitrypsin variants” value is listed as “M < S < Baghdad < Z α1‐antitrypsin”. Moreover, at human serum albumin, the “binding to human serum albumin” value stood at 84.2%. Moreover, the chromatographic logD (commonly lipophilicity estimated from chromatographic retention) in the series “ChromLogD” amounted to 3.8.
